Measurements from US20210220340A1, “COMPOSITION FOR PREVENTION OR TREATMENT OF NEURODEGENERATIVE DISEASE” (THE ASAN FOUNDATION, priority 2018, published 2021).
Counter-ions that a name gives are not always drawn. Like-named read-outs stand apart in the source and are kept apart here. Values belong to the compound of their own block, whether it stands above or below them.

Key:
all PDE isoforms = assay: HTS using all PDE isoforms as targets; type: biochemical; details: for inhibitory efficacy in all PDE isoforms: Example 18 screening, compared with cilostazol; for IC50: across PDE isoforms, FIG. 31
Description: Compounds included in the library of 800 FDA-approved drugs were diluted 1/4 from a concentration of 100 μM and dispensed into each well in 96-well plates, and mixed with a PDE reactant to allow a PDE reaction with the drug for 1 hour at a constant temperature.
The experiment was carried out in the same manner as used in screening of the FDA-approved drug library. […] Each of the screening library drugs were diluted 1/4 from 100 μM and dispensed into each well in 96-well plates, and mixed with a PDE reactant, followed by allowing a reaction between the drug and PDE for 1 hour for storage. After a stop solution was mixed with a AMP detection agent, the mixture was dispensed at 20 μl per well to allow a reaction for 10 minutes, followed by immediately measuring luminescence, and the experiment was performed according to a protocol provided by the kit used herein.
The first selection started with PDE3 as a target, and after candidate drugs were selected, all PDE isoforms were tested.

mouse pericytes [1] = assay: Amyloid beta aggregation in pericytes treated with cilostazol (confocal microscopy, western blotting); type: cell-based; details: 1 hour (confocal) and 24 hours (western blot)
Description: Each type of cell was cultured under the culture conditions, a cell culture was restored, followed by preparing a particulate fraction in a 50 mM Tris buffer. Proteins obtained from the cell culture developed in a SDS polyacrylamide gel, transferred to an immobilon-P membrane (Millipore, USA), and reacted with antibodies overnight. Next day, western blots were washed, reacted with peroxidase-linked secondary antibodies at room temperature for 1 hour, followed by staining bands with 4-chloro-1-naphthol. From the result of Example 1, PDE3, which is specifically highly expressed in pericytes, is selected as a target material. It was observed how the treatment of cilostazol known as a specific inhibitor of PDE3 affects amyloid beta accumulation. FIG. 5 is a set of confocal microscope images of mouse pericytes which are cultured and then treated with CTL (control), amyloid beta (Aβ) and cilostazol (amyloid beta+cilostazol; +cilo) for 1 hour, respectively. The graph on the right side of FIG. 5 is obtained by observing pericytes treated with CTL (control), amyloid beta (Aβ) and cilostazol (amyloid beta+cilostazol; +cilo) for 1 hour, and measuring the fluorescence intensities thereof. […] The graph on the right side of FIG. 6 is obtained by measuring an oligomer/actin expression level and a monomer/actin expression level in each group.

mouse astrocytes = assay: Lysosome pH change in astrocytes (LysoSensor Green DND-189, acridine orange); type: cell-based; details: amyloid beta-accumulated
Description: For astrocyte culture, first, cerebral cortices (neocortices) were dissociated from murine fetuses (3 weeks old), and the obtained cortical tissue was divided into single cells. Subsequently, the single cells were seeded, and the cultured astrocytes were stored using a culture medium (DMEM 7% FBS+7% HS+100 U/mL penicillin+100 μg/mL […]) in a humidified incubator at 37[…] under a condition of 5% carbon dioxide. After DIV 10-14, cells grown to 80-90% or more confluence were used, and before an experiment, the cells were washed twice with warm MEM and used. New cells were cultured and used each time without passaging.
FIG. 8A is a set of images that visualize pH changes for 0 to 1 hour in respective groups of mouse astrocytes, which are stained with LysoSensor Green DND-189, and then treated with either amyloid beta (Aβ) or amyloid beta and cilostazol (Aβ+cilo).

mouse pericytes [2] = assay: Lysosome pH in bafilomycin A1-treated pericytes (LysoSensor, confocal microscope); type: cell-based; details: mouse pericytes treated with bafilomycin A1 alone
Description: A system that can visualize changes in intracellular lysosome pH with LysoSensor, which is a pH-sensitive lysosomal dye, in mouse pericytes using a confocal microscope was established (refer to Example 6) to observe whether amlexanox (AMX) is involved in the pH change of lysosomes in cells.
FIG. 19 is a set of time-dependent confocal microscope images (left) of mouse pericytes when being treated with Bafilomycin A1, which is a vATPase inhibitor, and then stained with LysoSensor, and quantified data (right) thereof.
Here, the images on the left side of FIG. 19 are obtained by treating mouse pericytes with bafilomycin A1, which is a vATPase inhibitor, and analyzing the cells using LysoSensor over time by a confocal microscope (top), and by treating the bafilomycin A1-treated mouse pericytes with the finally selected amlexanox (AMX) and analyzing the cells using LysoSensor over time by a confocal microscope (bottom).

cathepsin B = assay: Lysosomal function activity in astrocytes: degree of hydrolysis of cathepsin B; type: cell-based, mouse; details: mouse astrocytes treated with bafilomycin A1 alone
Description: (§1) Samples stained with enzymatic dyes such as cathepsin B and cathepsin L were administered into the cell culture to allow a reaction for 30 minutes, and changes in activity of lysosomes in cells were confirmed using a confocal microscope.
(§2) Astrocytes were stained with a fluorescence-tagged lysosomal protein, and the degrees of hydrolysis of cathepsin B and cathepsin L, which are lysosomal proteins, were analyzed.
(§3) FIG. 21 is a set of time-dependent confocal microscope images of mouse astrocytes, which are treated with bafilomycin A1, which is a vATPase inhibitor, to assess the degree of hydrolysis of cathepsin B (top) and cathepsin L (bottom).

cathepsin L = assay: Lysosomal function activity in astrocytes: degree of hydrolysis of cathepsin L; type: cell-based, mouse; details: mouse astrocytes treated with bafilomycin A1 alone
Description: as §1, §2, §3

Compound: O=C(O)c1cccc(-c2noc(-c3ccccc3F)n2)c1 [ataluren]
inhibitory efficacy in all PDE isoforms (all PDE isoforms): high inhibitory efficacy

Compound: Oc1c(Cl)cc(Cl)c(Cl)c1Cc1c(O)c(Cl)cc(Cl)c1Cl [hexachloropene]
inhibitory efficacy in all PDE isoforms (all PDE isoforms): high inhibitory efficacy

Compound: Oc1ccc(/C=C/c2cc(O)cc(O)c2)cc1 [resveratrol]
inhibitory efficacy in all PDE isoforms (all PDE isoforms): high inhibitory efficacy

Compound: O=C1CCc2cc(OCCCCc3nnnn3C3CCCCC3)ccc2N1 [cilostazol]
amount of aggregated amyloid beta (mouse pericytes [1]): significantly reduced
lysosomal function (mouse astrocytes): normalized
pH of lysosomes (mouse astrocytes): acidified

Compound: Cc1nc(-c2ccc(OCC(C)C)c(C#N)c2)sc1C(=O)O [febuxostat]
inhibitory efficacy in all PDE isoforms (all PDE isoforms): high inhibitory efficacy

Compound: pifithrin
inhibitory efficacy in all PDE isoforms (all PDE isoforms): high inhibitory efficacy

Compound: CN1CCN(c2ccc3nc(-c4c(N)c5c(F)cccc5[nH]c4=O)[nH]c3c2)CC1 [dovitinib]
inhibitory efficacy in all PDE isoforms (all PDE isoforms): high inhibitory efficacy

Compound: Cc1nc(N)sc1-c1ccnc(Nc2ccc(N3CCOCC3)cc2)n1 [CYC116]
inhibitory efficacy in all PDE isoforms (all PDE isoforms): high inhibitory efficacy

IC50 (all PDE isoforms; read-out: inhibition value of each isoform, lowest): ≥ 0.3 nM
IC50 (all PDE isoforms; read-out: inhibition value of each isoform, maximum): ≤ 5500 nM
Compound: Oc1cc(O)cc(/C=C/c2ccc(O)c(O)c2)c1 [piceathanol]
inhibitory efficacy in all PDE isoforms (all PDE isoforms): high inhibitory efficacy

Compound: zafirlukast
inhibitory efficacy in all PDE isoforms (all PDE isoforms): high inhibitory efficacy

Compound: Cc1ccc(NC(=O)c2ccc(CN3CCN(C)CC3)cc2)cc1Nc1nc(-c2cccnc2)cs1 [masitinib]
inhibitory efficacy in all PDE isoforms (all PDE isoforms): high inhibitory efficacy

Compound: OCc1ccc(-c2ccc(-c3ccc(CO)s3)o2)s1 [RITA, 5,5′-(2,5-furandiyl)bis-2-thiophenemethanol]
inhibitory efficacy in all PDE isoforms (all PDE isoforms): high inhibitory efficacy

Compound: COC1=CC(c2cc3ccccc3[nH]2)=N/C1=C\c1[nH]c(C)cc1C [obatoclax mesylate]
inhibitory efficacy in all PDE isoforms (all PDE isoforms): high inhibitory efficacy

Compound: CCc1ccc(OCc2ccccc2C(=O)Nc2ccc3nc(C)cc(N)c3c2)cc1.Cl [JTC-801]
inhibitory efficacy in all PDE isoforms (all PDE isoforms): high inhibitory efficacy

Compound: Cc1ccc(NC(=O)c2ccc(CN3CCN(C)CC3)cc2)cc1Nc1nccc(-c2cccnc2)n1 [imatinib mesylate]
inhibitory efficacy in all PDE isoforms (all PDE isoforms): high inhibitory efficacy

Compound: CO/C1=C\C(C)=C\[C@@H](C)[C@@H](O)[C@@H](C)C/C(C)=C/C=C/[C@H](OC)[C@@H]([C@@H](C)[C@@H](O)[C@H](C)[C@@]2(O)C[C@@H](O)[C@H](C)[C@@H](C(C)C)O2)OC1=O [bafilomycin A1]
lysosomal pH (mouse pericytes [2]): increased
cathepsin B (lysosomal protein activity) (cathepsin B): decreased
cathepsin L (lysosomal protein activity) (cathepsin L): decreased
